Columns and labels:
[1] = system: SW620-BAG human colon carcinoma cells expressing an activated K-ras gene; assay: Cell Mat Assay, SW620 tumor cells; assay type: cell-based; settings: Homo sapiens, SW-620, Mat assay
[2] = system: DLD-1 (human colon carcinoma cells, ATCC # CCL 221); assay: In Vivo Anti-Tumor Studies, subcutaneous DLD-1 tumors; parameters: species or system athymic nu/nu female mice; settings: Mus musculus, DLD-1, po, QID, 4 weeks, range over the listed compounds
Source text: Tumor cells (5 X 10^5 to 8 X 10^6) of DLD-1 (human colon carcinoma cells, ATCC # CCL 221) are innolculated subcutaneously into the flank of 5-6 week o;d athymic nu/nu female mice.

[3] = system: T24-BAG4 human bladder carcinoma cells expressing an activated H-ras gene; assay: Cell Mat Assay, T24 tumor cells; assay type: cell-based; settings: Homo sapiens, read-out: Tumor (T-24) IC50
[4] = system: DLD-1-BAG human colon carcinoma cells expressing as activated K-ras gene; assay: Cell Mat Assay, DLD-1 tumor cells; assay type: cell-based; settings: Homo sapiens, DLD-1, Mat assay
[5] = system: Ras-CVLS processing in COS monkey kidney cells; assay: COS cell assay: inhibition of Ras-CVLS processing (Western blot); assay type: cell-based; settings: Primates, COS
[6] = system: Normal human HEPM fibroblasts; assay: Cell Mat Assay, normal cell mat; assay type: cell-based; settings: normal monolayer
Human tumor cells = assay: Soft Agar Assay (anchorage-independent growth); assay type: cell-based; settings: range over 19 tumor cell lines (K ras NIH 3T3, H ras NIH 3T3, HTB 177, HTB 173, A549, HTB 175, HTB 119, HTB 183, HPAF II, MCF-7, HBL100, Du4475, MDA MB 468, DU 145, MDA MB453, BT474, PC3, DLD I, AsPc-1), read-out: IC50 for each cell line

SMILES: NC(=O)N1CCC(CC(=O)N2CCC(C3c4ncc(Br)cc4CCc4cc(Cl)cc(Br)c43)CC2)CC1 (centres unmarked) [Example 10]
- IC50 [1]: 3.1 µM
- inhibition in vivo at 10 mg/kg ([2]; 10 mg/kg p.o.): 7 to 50%
- inhibition in vivo at 50 mg/kg ([2]; 50 mg/kg p.o.): 35.4 to 83%
- IC50 [3]: < 1.6 µM
- IC50 [4]: < 1.6 µM
- IC50 [5]: < 0.025 µM
- IC50 [6]: > 25 µM
- IC50 (Human tumor cells): 0.04 to 3 µM
